The NIST ThermoML archive (doi:10.1016/j.jct.2012.06.031)

Experiment: xn = mol fraction of the nth substance listed
Details: 101 kPa, Liquid; for viscosity: Concentric cylinders viscometry; for mass density: Vibrating tube method

CC(O)CO (stereo not given) [1,2-propanediol] + c1ccncc1
Details	mass density [kg/m3]	viscosity [mPa·s]
288.15 K, x2 = 0	1040.08	81.21
288.15 K, x2 = 0.1	1035.59	52.73
288.15 K, x2 = 0.2	1030.94	33
288.15 K, x2 = 0.2999	1026.33	20.08
288.15 K, x2 = 0.4	1021.39	12.08
288.15 K, x2 = 0.4999	1016.46	7.326
288.15 K, x2 = 0.6	1011.23	4.547
288.15 K, x2 = 0.7001	1005.6	3
288.15 K, x2 = 0.8	999.698	1.935
288.15 K, x2 = 0.9	994.093	1.391
293.15 K, x2 = 0	1036.46	58.75
293.15 K, x2 = 0.1	1031.78	38.74
293.15 K, x2 = 0.2	1026.95	24.82
293.15 K, x2 = 0.2999	1022.18	15.55
293.15 K, x2 = 0.4	1017.12	9.643
293.15 K, x2 = 0.4999	1012.06	6.036
293.15 K, x2 = 0.6	1006.71	3.857
293.15 K, x2 = 0.7001	1000.96	2.588
293.15 K, x2 = 0.8	994.925	1.736
293.15 K, x2 = 0.9	989.201	1.274
298.15 K, x2 = 0	1032.8	43.44
298.15 K, x2 = 0.1	1027.92	29.09
298.15 K, x2 = 0.2	1022.93	19.05
298.15 K, x2 = 0.2999	1018.01	12.15
298.15 K, x2 = 0.4	1012.81	7.822
298.15 K, x2 = 0.4999	1007.63	5.021
298.15 K, x2 = 0.6	1002.16	3.31
298.15 K, x2 = 0.7001	996.296	2.292
298.15 K, x2 = 0.8	990.138	1.567
298.15 K, x2 = 0.9	984.298	1.171
303.15 K, x2 = 0	1029.09	32.75
303.15 K, x2 = 0.1	1024.03	22.28
303.15 K, x2 = 0.2	1018.88	14.9
303.15 K, x2 = 0.2999	1013.81	9.81
303.15 K, x2 = 0.4	1008.48	6.396
303.15 K, x2 = 0.4999	1003.18	4.234
303.15 K, x2 = 0.6	997.549	2.866
303.15 K, x2 = 0.7001	991.612	2.008
303.15 K, x2 = 0.8	985.331	1.425
303.15 K, x2 = 0.9	979.376	1.082
308.15 K, x2 = 0	1025.34	25.16
308.15 K, x2 = 0.1	1020.1	17.37
308.15 K, x2 = 0.2	1014.79	11.85
308.15 K, x2 = 0.2999	1009.58	7.981
308.15 K, x2 = 0.4	1004.12	5.363
308.15 K, x2 = 0.4999	998.699	3.638
308.15 K, x2 = 0.6	992.998	2.514
308.15 K, x2 = 0.7001	986.903	1.795
308.15 K, x2 = 0.8	980.506	1.301
308.15 K, x2 = 0.9	974.443	1.002
313.15 K, x2 = 0	1021.55	19.65
313.15 K, x2 = 0.1	1016.14	13.76
313.15 K, x2 = 0.2	1010.67	9.567
313.15 K, x2 = 0.2999	1005.32	6.581
313.15 K, x2 = 0.4	999.722	4.523
313.15 K, x2 = 0.4999	994.186	3.137
313.15 K, x2 = 0.6	988.375	2.218
313.15 K, x2 = 0.7001	982.171	1.613
313.15 K, x2 = 0.8	975.66	1.193
313.15 K, x2 = 0.9	969.488	0.9311
318.15 K, x2 = 0	1017.73	15.58
318.15 K, x2 = 0.1	1012.14	11.07
318.15 K, x2 = 0.2	1006.51	7.833
318.15 K, x2 = 0.2999	1001.02	5.495
318.15 K, x2 = 0.4	995.298	3.855
318.15 K, x2 = 0.4999	989.644	2.729
318.15 K, x2 = 0.6	983.722	1.972
318.15 K, x2 = 0.7001	977.41	1.459
318.15 K, x2 = 0.8	970.792	1.098
318.15 K, x2 = 0.9	964.514	0.8674
323.15 K, x2 = 0	1013.86	12.55
323.15 K, x2 = 0.1	1008.1	9.082
323.15 K, x2 = 0.2	1002.32	6.551
323.15 K, x2 = 0.2999	996.693	4.678
323.15 K, x2 = 0.4	990.839	3.349
323.15 K, x2 = 0.4999	985.073	2.416
323.15 K, x2 = 0.6	979.044	1.786
323.15 K, x2 = 0.7001	972.625	1.341
323.15 K, x2 = 0.8	965.9	1.022
323.15 K, x2 = 0.9	959.522	0.8177

OCCCO [propan-1,3-diol] + c1ccncc1
Details	mass density [kg/m3]	viscosity [mPa·s]
288.15 K, x2 = 0	1056.12	66.53
288.15 K, x2 = 0.0999	1050.49	50.57
288.15 K, x2 = 0.2	1044.96	35.44
288.15 K, x2 = 0.3	1038.93	23
288.15 K, x2 = 0.4001	1032.58	14.29
288.15 K, x2 = 0.5	1025.96	8.708
288.15 K, x2 = 0.5999	1018.97	5.207
288.15 K, x2 = 0.7	1011.77	3.264
288.15 K, x2 = 0.7998	1004.3	2.111
288.15 K, x2 = 0.8998	996.608	1.46
293.15 K, x2 = 0	1053.02	51.91
293.15 K, x2 = 0.0999	1047.19	39.57
293.15 K, x2 = 0.2	1041.48	27.99
293.15 K, x2 = 0.3	1035.25	18.46
293.15 K, x2 = 0.4001	1028.71	11.68
293.15 K, x2 = 0.5	1021.91	7.266
293.15 K, x2 = 0.5999	1014.73	4.467
293.15 K, x2 = 0.7	1007.35	2.869
293.15 K, x2 = 0.7998	999.687	1.897
293.15 K, x2 = 0.8998	991.803	1.336
298.15 K, x2 = 0	1049.91	41.04
298.15 K, x2 = 0.0999	1043.89	31.39
298.15 K, x2 = 0.2	1037.98	22.36
298.15 K, x2 = 0.3	1031.55	14.91
298.15 K, x2 = 0.4001	1024.82	9.617
298.15 K, x2 = 0.5	1017.85	6.147
298.15 K, x2 = 0.5999	1010.48	3.867
298.15 K, x2 = 0.7	1002.91	2.54
298.15 K, x2 = 0.7998	995.061	1.715
298.15 K, x2 = 0.8998	986.987	1.228
303.15 K, x2 = 0	1046.79	32.84
303.15 K, x2 = 0.0999	1040.57	25.21
303.15 K, x2 = 0.2	1034.47	18.15
303.15 K, x2 = 0.3	1027.85	12.34
303.15 K, x2 = 0.4001	1020.93	8.079
303.15 K, x2 = 0.5	1013.76	5.244
303.15 K, x2 = 0.5999	1006.21	3.38
303.15 K, x2 = 0.7	998.466	2.266
303.15 K, x2 = 0.7998	990.425	1.557
303.15 K, x2 = 0.8998	982.158	1.132
308.15 K, x2 = 0	1043.64	26.58
308.15 K, x2 = 0.0999	1037.24	20.48
308.15 K, x2 = 0.2	1030.94	14.88
308.15 K, x2 = 0.3	1024.12	10.26
308.15 K, x2 = 0.4001	1017.01	6.845
308.15 K, x2 = 0.5	1009.66	4.549
308.15 K, x2 = 0.5999	1001.93	2.976
308.15 K, x2 = 0.7	994	2.033
308.15 K, x2 = 0.7998	985.773	1.424
308.15 K, x2 = 0.8998	977.312	1.05
313.15 K, x2 = 0	1040.49	21.74
313.15 K, x2 = 0.0999	1033.89	16.82
313.15 K, x2 = 0.2	1027.39	12.32
313.15 K, x2 = 0.3	1020.38	8.615
313.15 K, x2 = 0.4001	1013.08	5.832
313.15 K, x2 = 0.5	1005.55	3.951
313.15 K, x2 = 0.5999	997.629	2.636
313.15 K, x2 = 0.7	989.518	1.835
313.15 K, x2 = 0.7998	981.102	1.307
313.15 K, x2 = 0.8998	972.452	0.975
318.15 K, x2 = 0	1037.31	17.95
318.15 K, x2 = 0.0999	1030.51	13.94
318.15 K, x2 = 0.2	1023.82	10.31
318.15 K, x2 = 0.3	1016.62	7.299
318.15 K, x2 = 0.4001	1009.13	5.033
318.15 K, x2 = 0.5	1001.41	3.455
318.15 K, x2 = 0.5999	993.305	2.35
318.15 K, x2 = 0.7	985.015	1.663
318.15 K, x2 = 0.7998	976.412	1.204
318.15 K, x2 = 0.8998	967.572	0.9082
323.15 K, x2 = 0	1034.12	14.96
323.15 K, x2 = 0.0999	1027.12	11.75
323.15 K, x2 = 0.2	1020.24	8.779
323.15 K, x2 = 0.3	1012.83	6.286
323.15 K, x2 = 0.4001	1005.15	4.412
323.15 K, x2 = 0.5	997.251	3.078
323.15 K, x2 = 0.5999	988.961	2.139
323.15 K, x2 = 0.7	980.49	1.53
323.15 K, x2 = 0.7998	971.701	1.119
323.15 K, x2 = 0.8998	962.672	0.8532
